From patent US20090012103A1, “SUBSTITUTED HETEROCYCLIC COMPOUNDS” (priority 2007, published 2009)

molecular target: wild-type human cardiac sodium channel, hNav1.5 (Homo sapiens, UniProt Q14524); assay: Late INa screening assay (late sodium current, PatchXpress whole cell patch clamp); type: cell-based; conditions: compound at 10 μM; read-out: Late INa % blk
Procedure: The late sodium current (Late INa) and peak sodium current (Peak INa) assays are performed on an automated electrophysiology platform, PatchXpress 7000A (MDS Analytical Technologies, Sunnyvale, Calif.), which uses the whole cell patch clamp technique to measure currents through the cell membrane of up to 16 cells at a time. The assay uses an HEK293 (human embryonic kidney) cell line heterologously expressing the wild-type human cardiac sodium channel, hNav1.5, purchased from Millipore (Billerica, Mass.). No beta subunits were coexpressed with the Na channel alpha subunit. […] Experiments are carried out at 24-27° C.
For both the Late INa and Peak INa assays, series resistance compensation is set to 50% and whole-cell compensation is performed automatically. […] Currents through open sodium channels are automatically recorded and stored in the DataXpress2 database (MDS Analytical Technologies, Sunnyvale, Calif.). Analysis is performed using DataXpress2 analysis software and data are compiled in Excel.
Compound stocks are routinely made in glass vials to 10 mM in dimethyl sulfoxide (DMSO). In some cases, when compounds are not soluble in DMSO, they are made in 100% ethanol. Stocks are sonicated as necessary. The extracellular solution for screening Late INa is composed of: 140 mM NaCl, 4 mM KCl, 1.8 mM CaCl2, 0.75 mM MgCl2, and 5 mM HEPES with pH adjusted to 7.4 using NaOH. The extracellular solution for screening Peak INa is composed of: 20 mM NaCl, 120 mM N-methyl-D glucamine, 4 mM KCl, 1.8 mM CaCl2, 0.75 mM MgCl2, and 5 mM HEPES with pH adjusted to 7.4 using HCl. The intracellular solution used to perfuse the inside of the cells for both the Late INa and Peak INa assays contains: 120 mM CsF, 20 mM CsCl, 5 mM EGTA, 5 mM HEPES and pH adjusted to 7.4 with CsOH. Compounds are diluted in extracellular solution to 10 μM in glass vials and then transferred to glass well plates before robotic addition to the cells. The 0 Na extracellular solution used at the end of each experiment for the Late INa and Peak INa assays to measure baseline current contains: 140 mM N-methyl-D-glucamine; 4 mM KCl; 1.8 mM CaCl2; 0.75 mM MgCl2; 5 mM HEPES and pH was adjusted to 7.4 with HCl.
For the Late INa assay, sodium channels are activated every 10 seconds (0.1 Hz) by depolarizing the cell membrane to −20 mV for 250 milliseconds (ms) from a holding potential of −120 mV.
All compounds are tested to determine their activity in blocking the late sodium current. Late INa current is generated by adding 10 μM Tefluthrin (pyrethroid) to the extracellular solution while recording Na currents. […] For some experiments, 50 nM ATX II (sea anemone toxin), another late INa activator, was used to generate the late component. […] Baseline current in the absence of Na^+ ions is measured at the end of each experiment (after two additions of 0 Na solution-see above) and is used to calculate the percent block by compound.

wild-type human cardiac sodium channel, hNav1.5, sequence (Q14524 whole entry): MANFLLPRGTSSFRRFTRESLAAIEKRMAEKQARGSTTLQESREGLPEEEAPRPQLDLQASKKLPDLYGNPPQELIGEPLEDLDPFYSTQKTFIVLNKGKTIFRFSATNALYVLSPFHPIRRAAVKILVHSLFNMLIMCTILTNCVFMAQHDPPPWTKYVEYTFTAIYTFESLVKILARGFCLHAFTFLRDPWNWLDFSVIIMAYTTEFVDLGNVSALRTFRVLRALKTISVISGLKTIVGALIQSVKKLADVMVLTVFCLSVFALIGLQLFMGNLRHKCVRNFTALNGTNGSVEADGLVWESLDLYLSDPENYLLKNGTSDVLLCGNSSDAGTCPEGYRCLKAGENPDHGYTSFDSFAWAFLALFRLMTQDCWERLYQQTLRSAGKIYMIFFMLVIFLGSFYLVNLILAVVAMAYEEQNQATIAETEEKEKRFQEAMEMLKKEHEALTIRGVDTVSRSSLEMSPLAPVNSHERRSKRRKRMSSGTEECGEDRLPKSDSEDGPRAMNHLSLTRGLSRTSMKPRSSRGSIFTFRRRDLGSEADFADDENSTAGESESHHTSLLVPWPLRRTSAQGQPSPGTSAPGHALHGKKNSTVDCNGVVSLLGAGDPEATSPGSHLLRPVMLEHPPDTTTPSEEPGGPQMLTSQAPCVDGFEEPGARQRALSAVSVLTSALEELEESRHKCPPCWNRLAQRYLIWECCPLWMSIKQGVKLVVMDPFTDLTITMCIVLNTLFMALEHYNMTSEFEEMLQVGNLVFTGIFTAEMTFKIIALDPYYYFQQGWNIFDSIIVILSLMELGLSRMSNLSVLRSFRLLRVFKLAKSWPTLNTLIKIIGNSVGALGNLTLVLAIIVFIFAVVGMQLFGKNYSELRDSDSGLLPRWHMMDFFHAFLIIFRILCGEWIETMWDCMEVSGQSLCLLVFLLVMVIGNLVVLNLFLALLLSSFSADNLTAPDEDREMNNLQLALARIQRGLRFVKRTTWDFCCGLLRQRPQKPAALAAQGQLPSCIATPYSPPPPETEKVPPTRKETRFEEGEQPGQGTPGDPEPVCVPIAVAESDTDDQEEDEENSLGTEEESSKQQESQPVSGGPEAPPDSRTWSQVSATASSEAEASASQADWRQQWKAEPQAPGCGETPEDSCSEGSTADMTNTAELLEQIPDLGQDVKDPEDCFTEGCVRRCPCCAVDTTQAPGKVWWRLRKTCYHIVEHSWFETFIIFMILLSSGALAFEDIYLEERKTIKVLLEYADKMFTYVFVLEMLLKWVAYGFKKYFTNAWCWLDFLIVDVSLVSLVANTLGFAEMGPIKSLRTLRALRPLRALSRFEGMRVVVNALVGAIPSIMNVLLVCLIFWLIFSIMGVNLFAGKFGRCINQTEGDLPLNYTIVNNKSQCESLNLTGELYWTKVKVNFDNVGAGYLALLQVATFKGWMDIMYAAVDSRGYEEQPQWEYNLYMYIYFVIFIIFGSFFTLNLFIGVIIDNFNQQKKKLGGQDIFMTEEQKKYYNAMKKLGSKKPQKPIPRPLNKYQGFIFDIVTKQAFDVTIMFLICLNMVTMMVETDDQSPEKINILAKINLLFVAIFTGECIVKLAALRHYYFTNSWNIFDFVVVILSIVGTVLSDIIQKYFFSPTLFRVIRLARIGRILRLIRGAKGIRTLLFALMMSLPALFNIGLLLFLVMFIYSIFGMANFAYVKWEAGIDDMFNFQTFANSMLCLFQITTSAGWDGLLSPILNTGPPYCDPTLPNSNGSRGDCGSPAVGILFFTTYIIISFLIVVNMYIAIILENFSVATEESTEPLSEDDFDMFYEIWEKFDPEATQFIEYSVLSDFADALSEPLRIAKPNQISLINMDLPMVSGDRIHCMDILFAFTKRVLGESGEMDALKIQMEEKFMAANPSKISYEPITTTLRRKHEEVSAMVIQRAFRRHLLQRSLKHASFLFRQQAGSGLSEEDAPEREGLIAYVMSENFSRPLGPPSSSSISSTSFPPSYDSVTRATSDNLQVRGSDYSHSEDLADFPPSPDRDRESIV

SMILES	inhibition at 10 µM
CC1=C(C(=O)OCc2ccccc2)C(c2ccc3ccccc3c2)n2nnnc2N1 (stereo not drawn) [PT-028, benzyl 5-methyl-7-(naphthalen-2-yl)-4,7-dihydrotetrazolo[1,5-a]pyrimidine-6-carboxylate]	23.1%
CCOC(=O)C1=C(C)Nc2nccn2C1c1cccc2ccccc12 (stereo not drawn) [PT-087, ethyl 7-methyl-5-(naphthalen-1-yl)-5,8-dihydroimidazo[1,2-a]pyrimidine-6-carboxylate]	16.5%
CC1=C(C(=O)OCc2ccccc2)C(c2ccccc2-c2ccccc2C(N)=O)n2nnnc2N1 (stereo not drawn) [PT-388, benzyl 7-(2′-carbamoylbiphenyl-2-yl)-5-methyl-4,7-dihydrotetrazolo[1,5-a]pyrimidine-6-carboxylate]	2.7%
CC1=C(C(=O)NNC(=O)Cc2ccccc2)C(c2cccc3ccccc23)C2=C(CCCC2=O)N1 (stereo not drawn) [PT-266, 2-methyl-4-(naphthalen-1-yl)-5-oxo-N′-(2-phenylacetyl)-1,4,5,6,7,8-hexahydroquinoline-3-carbohydrazide]	8.8%
CCOC(=O)C1=C(C)Nc2nnnn2C1c1ccccc1OCc1cccc(C(=O)O)c1 (stereo not drawn) [PT-268, 3-((2-(6-(ethoxycarbonyl)-5-methyl-4,7-dihydrotetrazolo[1,5-a]pyrimidin-7-yl)phenoxy)methyl)benzoic acid]	9.5%
COC(=O)c1ccc(C2C(C(=O)OCc3ccccc3)=C(C)Nc3nnnn32)cc1 (stereo not drawn) [PT-412, benzyl 7-(4-(methoxycarbonyl)phenyl)-5-methyl-4,7-dihydrotetrazolo[1,5-a]pyrimidine-6-carboxylate]	27.6%
COc1cc(N(C)C)ccc1C1C(C(=O)OCc2ccccc2)=C(C)Nc2nnnn21 (stereo not drawn) [PT-408, benzyl 7-(4-(dimethylamino)-2-methoxyphenyl)-5-methyl-4,7-dihydrotetrazolo[1,5-a]pyrimidine-6-carboxylate]	30.4%
CC1=C(C(=O)OCc2ccccc2)C(c2ccccc2OCc2ccccc2)n2nnnc2N1 (stereo not drawn) [PT-383, benzyl 7-(2-(benzyloxy)phenyl)-5-methyl-4,7-dihydrotetrazolo[1,5-a]pyrimidine-6-carboxylate]	79.5%
COC(=O)C1=C(C)Nc2nnnn2C1c1c(-c2ccc(C(=O)O)cc2)sc2ccccc12 (stereo not drawn) [PT-296, 4-(3-(6-(methoxycarbonyl)-5-methyl-4,7-dihydrotetrazolo[1,5-a]pyrimidin-7-yl)benzo[b]thiophen-2-yl)benzoic acid]	13.3%
CC1=C(C(=O)OCc2ccccc2)C(c2cccc3ccccc23)c2c(-c3ccc(C)cc3)n[nH]c2N1 (stereo not drawn) [PT-077, benzyl 6-methyl-4-(naphthalen-1-yl)-3-p-tolyl-4,7-dihydro-1H-pyrazolo[3,4-b]pyridine-5-carboxylate]	-2.6%
CCOC(=O)C1=C(C)Nc2nnnn2C1c1ccccc1-c1ccncc1 (stereo not drawn) [PT-460, ethyl 5-methyl-7-(2-(pyridin-4-yl)phenyl)-4,7-dihydrotetrazolo[1,5-a]pyrimidine-6-carboxylate]	22.1%
CC1=C(C(=O)OCc2ccccc2)C(c2cccc3ccccc23)n2ncc(-c3ccccc3)c2N1 (stereo not drawn) [PT-362, benzyl 5-methyl-7-(naphthalen-1-yl)-3-phenyl-4,7-dihydropyrazolo[1,5-a]pyrimidine-6-carboxylate]	14.4%
CC1=C(C(=O)OCc2cccs2)C(c2cccc3ccccc23)n2nnnc2N1 (stereo not drawn) [PT-525, thiophen-2-ylmethyl 5-methyl-7-(naphthalen-1-yl)-4,7-dihydrotetrazolo[1,5-a]pyrimidine-6-carboxylate]	67.5%
CCOC(=O)C1=C(C)Nc2nnnn2C1c1cccc(C2C(C(=O)OCC)=C(C)Nc3nnnn32)c1 (stereo not drawn) [PT-202, diethyl 7,7′-(1,3-phenylene)bis(5-methyl-4,7-dihydrotetrazolo[1,5-a]pyrimidine-6-carboxylate)]	9.7%
CCOC(=O)C1=C(C)Nc2nnnn2C1c1ccccc1-c1ccc(-c2nnn[nH]2)cc1 (stereo not drawn) [PT-500, ethyl 7-(4′-(1H-tetrazol-5-yl)biphenyl-2-yl)-5-methyl-4,7-dihydrotetrazolo[1,5-a]pyrimidine-6-carboxylate]	2.7%
CCOC(=O)C1=C(C)Nc2[nH]ncc2C1c1ccc(N(C)C)c2ccccc12 (stereo not drawn) [PT-454, ethyl 4-(4-(dimethylamino)naphthalen-1-yl)-6-methyl-4,7-dihydro-1H-pyrazolo[3,4-b]pyridine-5-carboxylate]	30.2%
CCOC(=O)C1=C(C)NC2=C(C(=O)CCC2)C1c1cc2cc(OC)ccc2nc1Cl (stereo not drawn) [PT-188, ethyl 2-chloro-6-methoxy-2′-methyl-5′-oxo-1′,4′,5′,6′,7′,8′-hexahydro-3,4′-biquinoline-3′-carboxylate]	-0.8%
CC1=C(C(=O)OCc2ccccc2)C(c2occc2Br)n2nnnc2N1 (stereo not drawn) [PT-400, benzyl 7-(3-bromofuran-2-yl)-5-methyl-4,7-dihydrotetrazolo[1,5-a]pyrimidine-6-carboxylate]	53.2%
CCOC(=O)C1=C(CC)Nc2nnnn2C1c1ccc2ccccc2c1 (stereo not drawn) [PT-011, ethyl 5-ethyl-7-(naphthalen-2-yl)-4,7-dihydrotetrazolo[1,5-a]pyrimidine-6-carboxylate]	37.7%
CCOC(=O)C1=C(C)NC(C)=C(C(=O)OCC)C1c1ccc(OC)cc1C#N [PT-431, diethyl 4-(2-cyano-4-methoxyphenyl)-2,6-dimethyl-1,4-dihydropyridine-3,5-dicarboxylate]	56.1%
CC1=C(C(=O)OCc2ccccc2)C(c2cccc3ccccc23)n2nnnc2N1CC(=O)O (stereo not drawn) [PT-257, 2-(6-(benzyloxycarbonyl)-5-methyl-7-(naphthalen-1-yl)tetrazolo[1,5-a]pyrimidin-4(7H)-yl)acetic acid]	7.4%
N#CC1=C(N)OC2=C(C(=O)CC2)C1c1ccc(Br)cc1 (stereo not drawn) [PT-093, 2-amino-4-(4-bromophenyl)-5-oxo-4,5,6,7-tetrahydrocyclopenta[b]pyran-3-carbonitrile]	-2.6%
COCCOC(=O)C1=C(C)NC(C)=C(C(=O)OCCOC)C1c1sccc1Br [PT-125, bis(2-methoxyethyl) 4-(3-bromothiophen-2-yl)-2,6-dimethyl-1,4-dihydropyridine-3,5-dicarboxylate]	10.3%
COc1ccc(C2C(C(=O)OCc3ccccc3)=C(C)Nc3[nH]ncc32)c2ccccc12 (stereo not drawn) [PT-333, benzyl 4-(4-methoxynaphthalen-1-yl)-6-methyl-4,7-dihydro-1H-pyrazolo[3,4-b]pyridine-5-carboxylate]	13.1%
O=C1OCc2nc3c(cnn3-c3ccccc3)c(-c3cccc4ccccc34)c21 [PT-302, 4-(naphthalen-1-yl)-1-phenyl-1H-furo[3,4-e]pyrazolo[3,4-b]pyridin-5(7H)-one]	50.4%
COc1cc(C#N)ccc1C1C(C(=O)OCc2ccccc2)=C(C)Nc2nnnn21 (stereo not drawn) [PT-417, benzyl 7-(4-cyano-2-methoxyphenyl)-5-methyl-4,7-dihydrotetrazolo[1,5-a]pyrimidine-6-carboxylate]	41.3%
CCOC(=O)c1c(C)nc2[nH]ncc2c1-c1cccc2ccccc12 [PT-472, ethyl 6-methyl-4-(naphthalen-1-yl)-1H-pyrazolo[3,4-b]pyridine-5-carboxylate]	22.6%
CC1=C(C(=O)OCc2ccccc2)C(c2ccccc2-c2ccc([N+](=O)[O-])cc2)n2nnnc2N1 (stereo not drawn) [PT-361, benzyl 5-methyl-7-(4′-nitrobiphenyl-2-yl)-4,7-dihydrotetrazolo[1,5-a]pyrimidine-6-carboxylate]	41%
CCOC(=O)C1=C(C)Nc2[nH]ncc2C1c1ccccc1-c1ccc(NS(C)(=O)=O)cc1 (stereo not drawn) [PT-471, ethyl 6-methyl-4-(4′-(methylsulfonamido)biphenyl-2-yl)-4,7-dihydro-1H-pyrazolo[3,4-b]pyridine-5-carboxylate]	30%
CC1=C(C(=O)OCc2ccccc2)C(c2ccccc2-c2c(C)noc2C)n2nnnc2N1 (stereo not drawn) [PT-376, benzyl 7-(2-(3,5-dimethylisoxazol-4-yl)phenyl)-5-methyl-4,7-dihydrotetrazolo[1,5-a]pyrimidine-6-carboxylate]	61%
